Experiment [1] has as its system U87MG human glioma cells. Briefly: Subcutaneous glioma xenograft. In kind it is in vivo, BALB/c (nu/nu) mice.
Description: (§1) Glioblastoma: In animal models of glioblastoma, U87MG human glioma cells were implanted subcutaneously or intracranially in BALB/c (nu/nu) mice and the animals were divided into different treatment groups. […] In this study the effects of cisplatin were also examined.
Experiment [2] has as its system U87MG human glioma cells. Put plainly: Intracranial glioma xenograft. In kind it is in vivo, BALB/c (nu/nu) mice.
Description: as §1
A further experiment deals with A2780/CP cells. Put plainly: CCK-8 cytotoxicity, A6 plus DDP. In kind it is cell-based, human. The procedure: Study Conditions. Drugs: […] Drug exposure time: 1 hour; Cell line: […] Media: RPMI 1640 plus 10% FBS containing 1 mM penicillin/streptomycin; Cytotoxicity Assays: CCK-8 (Cell Counting Kit 8-Dojindo Molecular Technologies). Tissue culture plates containing 96-well plates were seeded with 4000 cells in 100 μl of media per well. The wells on rows A-[…] cells, while the wells on rows E-[…]/CP cells. […] After 1 h, increasing concentrations of DDP were added to triplicate wells in 100 μl medium. […] The cells were then allowed to grow for 96 h following which the plates were assayed for relative cell growth with the CCK-8 assay. CCK-8 assay. Five μl of CCK-8 stain was added to each well and the plate was incubated at 37° C. incubator for 4 h. The plate was read with a microplate reader at a wavelength of 450 nm. (See FIGS. 5A-5D and FIG. 6). The assay was performed using triplicate wells for each DDP concentration. The data in the tables below is the optical density in the well which is a function of the number of live cells remaining at the end of the 96 h growth period.

For the next experiment, the system named is IGROV-1/CP cells. Briefly: CCK-8 cytotoxicity, A6 plus DDP. The format is cell-based, human. On the procedure: Study Conditions. Drugs: […] Drug exposure time: 1 hour; Cell line: IGROV-1 and its DDP-resistant subline IGROV-1/CP; Media: RPMI 1640 plus 10% FBS containing 1 mM penicillin/streptomycin; Cytotoxicity Assays: CCK-8 (Cell Counting Kit 8—Dojindo Molecular Technologies). Tissue culture plates containing 96-well plates were seeded with 4000 cells in 100 μl of media per well. The wells on rows A-D were seeded with IGROV-1 cells, while the wells on rows E-H were seeded with IGROV-1/CP cells. […] After 1 h, increasing concentrations of DDP were added to triplicate wells in […] medium. […] The cells were then allowed to grow for 96 h following which the plates were assayed for relative cell growth with the CCK-8 assay. CCK-8 assay. […] of CCK-8 stain was added to each well and the plate was incubated at 37° C. incubator for 4 h. The plate was read with a microplate reader at a wavelength of 450 nm. (See FIGS. 7A-7D and FIG. 8). The assay was performed using triplicate wells for each DDP concentration. The data in the tables below is the optical density in the well which is a function of the number of live cells remaining at the end of the 96 h growth period.

The test system of experiment [3] is HEY/C2 (DDP resistant) cells. Briefly: CCK-8 cytotoxicity of DDP/PTX with or without A6. The format is cell-based. The conditions noted are these: 72 hours. The procedure: The cells were plated in 96-well plates as described and incubated overnight. […] The CCK-8 assay described herein was performed to access cytotoxicity of DDP/PTX.
For experiment [4], the target named is T1, CD44 on B16-F10 melanoma cells (UniProt P15379 23-778).
T1 sequence (looked up): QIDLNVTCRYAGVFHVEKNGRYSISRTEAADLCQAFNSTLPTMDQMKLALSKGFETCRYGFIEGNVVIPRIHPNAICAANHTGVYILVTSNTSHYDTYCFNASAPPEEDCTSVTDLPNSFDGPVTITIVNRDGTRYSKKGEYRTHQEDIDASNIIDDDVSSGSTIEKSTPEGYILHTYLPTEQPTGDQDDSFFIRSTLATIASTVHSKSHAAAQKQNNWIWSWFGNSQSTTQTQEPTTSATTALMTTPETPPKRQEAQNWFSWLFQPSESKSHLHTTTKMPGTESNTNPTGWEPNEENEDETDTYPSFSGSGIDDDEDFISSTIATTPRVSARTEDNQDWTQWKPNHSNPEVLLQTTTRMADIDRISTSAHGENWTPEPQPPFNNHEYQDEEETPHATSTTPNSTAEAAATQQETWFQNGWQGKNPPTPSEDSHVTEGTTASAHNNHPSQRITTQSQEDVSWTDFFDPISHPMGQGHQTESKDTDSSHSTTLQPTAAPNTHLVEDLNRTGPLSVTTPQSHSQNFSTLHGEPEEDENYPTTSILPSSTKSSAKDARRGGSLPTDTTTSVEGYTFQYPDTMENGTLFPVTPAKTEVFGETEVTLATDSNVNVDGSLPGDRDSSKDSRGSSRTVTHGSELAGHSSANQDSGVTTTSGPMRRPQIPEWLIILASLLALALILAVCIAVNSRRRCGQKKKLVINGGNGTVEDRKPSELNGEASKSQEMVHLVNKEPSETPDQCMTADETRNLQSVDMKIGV
Put plainly: cell-based or functional assay.

From patent publication US20190381127A1, “COMBINATION THERAPY WITH A6, CHEMOTHERAPEUTIC AGENTS, RADIATION THERAPY, OR A COMBINATION THEREOF FOR THE TREATMENT OF CANCER” (Splash Pharmaceuticals, Inc., priority 2016, published 2019) come the findings set out here.

Turning to `N.N.[Cl][Pt][Cl]` [cisplatin, reference compound], the “inhibition of subcutaneous tumor growth” value in the experiment on U87MG human glioma cells [1] was determined as 53%. In addition, the “inhibition of tumor growth” value in the experiment on U87MG human glioma cells [2] is given as 82%. The “resistance of the cells to DDP” value in the experiment with A2780/CP cells is “not very resistant”; in the experiment on IGROV-1/CP cells, “appeared not to be resistant”. In experiment [3], the “IC50 in HEY/C2 cells compared to HEY cells” value is “about 7 fold”.
As for `CC(=O)O[C@H]1C(=O)[C@@]2(C)[C@H]([C@H](OC(=O)c3ccccc3)[C@]3(O)C[C@H](OC(=O)[C@H](O)[C@@H](NC(=O)c4ccccc4)c4ccccc4)C(C)=C1C3(C)C)[C@]1(OC(C)=O)CO[C@@H]1C[C@@H]2O` [paclitaxel, reference compound], the “resistance of HEY/C2 cells compared to HEY cells” value in experiment [3] is reported as “resisted to paclitaxel”.
With Ac-KPSSPPEE-NH2 [A6 peptide (Ac-KPSSPPEE-NH2)], the “IC50 for A6 inhibition of chemotaxis in B16-F10 cells” value in experiment [4] worked out at 29 nM.
